From US8853418B2, “Cyclopentylpyrazoles as N-type calcium channel blockers” (Janssen Pharmaceutica NV, priority 2012, dated 2014)
Read-outs that look alike come from different tables or passages of the source.

What was measured:
[1] = biological target: N-type calcium channel (α1B (Cav2.2), β3 and α2δ subunits) (Homo sapiens, UniProt Q00975); assay: Functional Assay: Antagonism of N-Type Calcium Channel (FDSS calcium mobilization, KCl depolarization); format: cell-based; details: for IC50: HEK cell line, 50 mM KCl depolarization, six-point concentration-response, read-out: FDSS IC50
Chain of N-type calcium channel (α1B (Cav2.2), β3 and α2δ subunits) (Q00975 whole entry): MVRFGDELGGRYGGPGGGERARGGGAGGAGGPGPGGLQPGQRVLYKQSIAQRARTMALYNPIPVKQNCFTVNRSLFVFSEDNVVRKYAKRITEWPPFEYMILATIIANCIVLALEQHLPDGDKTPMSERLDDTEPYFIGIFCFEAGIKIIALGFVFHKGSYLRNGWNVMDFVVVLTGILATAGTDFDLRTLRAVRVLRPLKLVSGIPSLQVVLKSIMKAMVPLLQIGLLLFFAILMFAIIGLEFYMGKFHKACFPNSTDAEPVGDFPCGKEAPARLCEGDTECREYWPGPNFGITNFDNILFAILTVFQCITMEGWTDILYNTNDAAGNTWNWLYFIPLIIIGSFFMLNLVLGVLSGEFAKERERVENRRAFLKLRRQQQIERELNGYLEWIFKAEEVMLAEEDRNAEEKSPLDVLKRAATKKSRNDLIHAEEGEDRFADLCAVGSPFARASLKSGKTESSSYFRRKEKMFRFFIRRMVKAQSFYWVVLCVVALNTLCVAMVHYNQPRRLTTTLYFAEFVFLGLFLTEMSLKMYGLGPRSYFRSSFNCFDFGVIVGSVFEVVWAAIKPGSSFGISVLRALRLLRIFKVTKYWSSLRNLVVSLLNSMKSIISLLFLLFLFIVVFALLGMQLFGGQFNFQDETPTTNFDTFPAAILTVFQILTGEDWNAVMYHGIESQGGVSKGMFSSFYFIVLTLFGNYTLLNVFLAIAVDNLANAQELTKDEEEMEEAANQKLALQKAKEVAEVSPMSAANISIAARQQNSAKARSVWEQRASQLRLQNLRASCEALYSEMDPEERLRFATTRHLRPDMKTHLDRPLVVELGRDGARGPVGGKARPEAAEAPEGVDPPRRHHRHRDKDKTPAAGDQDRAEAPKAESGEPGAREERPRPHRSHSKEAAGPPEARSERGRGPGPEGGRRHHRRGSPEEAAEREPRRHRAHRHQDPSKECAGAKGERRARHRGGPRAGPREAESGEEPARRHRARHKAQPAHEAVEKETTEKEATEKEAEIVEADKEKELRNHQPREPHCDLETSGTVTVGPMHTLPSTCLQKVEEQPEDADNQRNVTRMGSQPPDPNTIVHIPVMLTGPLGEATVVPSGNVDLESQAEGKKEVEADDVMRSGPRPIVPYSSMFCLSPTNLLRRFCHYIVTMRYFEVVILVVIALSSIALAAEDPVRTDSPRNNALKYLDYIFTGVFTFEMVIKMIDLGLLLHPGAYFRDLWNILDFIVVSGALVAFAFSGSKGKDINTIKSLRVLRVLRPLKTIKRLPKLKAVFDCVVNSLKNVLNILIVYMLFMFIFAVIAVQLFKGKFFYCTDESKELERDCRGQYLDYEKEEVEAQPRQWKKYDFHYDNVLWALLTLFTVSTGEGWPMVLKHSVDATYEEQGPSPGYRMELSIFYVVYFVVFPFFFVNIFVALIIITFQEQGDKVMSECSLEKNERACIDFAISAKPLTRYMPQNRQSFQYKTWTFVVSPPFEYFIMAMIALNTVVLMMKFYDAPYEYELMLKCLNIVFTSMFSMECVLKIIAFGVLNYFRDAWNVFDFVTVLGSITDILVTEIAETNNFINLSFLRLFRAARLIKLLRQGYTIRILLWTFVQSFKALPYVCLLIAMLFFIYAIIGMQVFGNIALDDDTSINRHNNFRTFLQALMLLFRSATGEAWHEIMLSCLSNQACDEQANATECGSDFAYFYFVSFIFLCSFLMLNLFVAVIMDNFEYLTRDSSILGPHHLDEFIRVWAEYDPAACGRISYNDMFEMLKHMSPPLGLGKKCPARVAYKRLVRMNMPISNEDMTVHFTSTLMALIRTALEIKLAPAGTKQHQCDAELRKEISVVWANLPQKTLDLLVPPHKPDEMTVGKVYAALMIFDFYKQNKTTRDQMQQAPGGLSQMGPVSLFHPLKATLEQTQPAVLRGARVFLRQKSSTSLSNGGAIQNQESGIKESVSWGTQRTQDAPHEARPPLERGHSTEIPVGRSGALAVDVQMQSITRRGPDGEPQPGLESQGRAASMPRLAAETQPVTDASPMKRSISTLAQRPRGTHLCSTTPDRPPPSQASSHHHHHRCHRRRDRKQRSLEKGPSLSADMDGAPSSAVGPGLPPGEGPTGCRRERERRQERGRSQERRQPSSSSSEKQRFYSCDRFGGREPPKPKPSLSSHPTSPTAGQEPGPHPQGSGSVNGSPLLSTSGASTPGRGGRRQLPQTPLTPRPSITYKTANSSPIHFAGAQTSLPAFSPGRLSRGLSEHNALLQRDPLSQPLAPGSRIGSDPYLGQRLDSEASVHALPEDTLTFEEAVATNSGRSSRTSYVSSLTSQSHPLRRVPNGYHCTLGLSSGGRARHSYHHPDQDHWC
Chain of N-type calcium channel (α1B (Cav2.2), β3 and α2δ subunits) (P54284 whole entry partner): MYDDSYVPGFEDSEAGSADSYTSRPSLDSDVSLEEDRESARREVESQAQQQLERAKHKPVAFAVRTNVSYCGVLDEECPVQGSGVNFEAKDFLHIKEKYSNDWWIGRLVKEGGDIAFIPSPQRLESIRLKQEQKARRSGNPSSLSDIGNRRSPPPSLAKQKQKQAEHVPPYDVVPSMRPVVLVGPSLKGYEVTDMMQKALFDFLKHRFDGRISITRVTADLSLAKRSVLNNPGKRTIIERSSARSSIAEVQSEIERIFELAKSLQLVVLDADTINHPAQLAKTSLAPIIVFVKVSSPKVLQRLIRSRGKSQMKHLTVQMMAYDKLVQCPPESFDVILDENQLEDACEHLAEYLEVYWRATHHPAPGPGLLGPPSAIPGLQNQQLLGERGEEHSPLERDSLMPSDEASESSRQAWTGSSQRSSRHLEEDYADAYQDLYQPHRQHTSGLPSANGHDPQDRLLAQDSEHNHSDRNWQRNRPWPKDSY
Chain of N-type calcium channel (α1B (Cav2.2), β3 and α2δ subunits) (P54289 25-946 partner limits assumed): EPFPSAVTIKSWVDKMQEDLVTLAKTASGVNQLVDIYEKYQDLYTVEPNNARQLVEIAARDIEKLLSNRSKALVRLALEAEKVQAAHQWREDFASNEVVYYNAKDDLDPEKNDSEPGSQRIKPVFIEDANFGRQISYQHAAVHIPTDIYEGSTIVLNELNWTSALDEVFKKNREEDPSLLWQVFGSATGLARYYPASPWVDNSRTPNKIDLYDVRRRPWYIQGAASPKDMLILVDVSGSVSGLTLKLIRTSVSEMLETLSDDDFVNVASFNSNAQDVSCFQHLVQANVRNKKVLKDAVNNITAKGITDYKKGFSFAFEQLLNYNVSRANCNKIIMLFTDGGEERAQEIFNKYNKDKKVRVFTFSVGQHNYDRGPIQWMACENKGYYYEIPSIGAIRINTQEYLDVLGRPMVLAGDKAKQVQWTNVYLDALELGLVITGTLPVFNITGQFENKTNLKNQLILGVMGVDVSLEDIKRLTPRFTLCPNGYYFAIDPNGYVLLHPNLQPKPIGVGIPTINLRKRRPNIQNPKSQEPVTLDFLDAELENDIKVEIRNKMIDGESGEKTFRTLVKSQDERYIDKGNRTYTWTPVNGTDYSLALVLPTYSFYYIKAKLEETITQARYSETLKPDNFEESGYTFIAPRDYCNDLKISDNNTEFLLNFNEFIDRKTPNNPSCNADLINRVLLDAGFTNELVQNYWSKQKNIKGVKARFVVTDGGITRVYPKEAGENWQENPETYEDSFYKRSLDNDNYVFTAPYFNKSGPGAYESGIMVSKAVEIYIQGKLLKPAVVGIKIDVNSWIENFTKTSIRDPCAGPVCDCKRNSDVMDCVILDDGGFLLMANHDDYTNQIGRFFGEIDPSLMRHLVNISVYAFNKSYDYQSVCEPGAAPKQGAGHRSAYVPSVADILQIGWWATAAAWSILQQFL
Chain of N-type calcium channel (α1B (Cav2.2), β3 and α2δ subunits) (P54289 947-1103 partner limits assumed): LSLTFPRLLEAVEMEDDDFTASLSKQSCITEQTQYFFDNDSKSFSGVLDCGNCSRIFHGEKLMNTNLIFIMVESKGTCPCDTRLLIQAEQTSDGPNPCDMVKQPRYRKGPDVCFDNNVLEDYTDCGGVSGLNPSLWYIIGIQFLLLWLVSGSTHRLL
In short: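 HEK cells stably co-expressing α1B (Cav2.2), β3 and α2δ were loaded with calcium dye, then given compound with fluorescence recorded for 5 min before 50 mM KCl depolarisation and 3 min more reading. IC50 came from six-point curves of maximal fluorescence, normalised to KCl maximum and buffer minimum.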

N-type calcium channel = N-type calcium channel (Homo sapiens, UniProt Q00975); assay: Automated Electrophysiology Assay (QPatch-HT whole-cell patch clamp; low- and high-frequency stimulation); format: cell-based
Chain of N-type calcium channel (Q00975 whole entry): as the sequence (Q00975 whole entry) above
Chain of N-type calcium channel (P54284 whole entry partner): as the sequence (P54284 whole entry partner) above
Chain of N-type calcium channel (P54289 25-946 partner limits assumed): as the sequence (P54289 25-946 partner limits assumed) above
Chain of N-type calcium channel (P54289 947-1103 partner limits assumed): as the sequence (P54289 947-1103 partner limits assumed) above

[2] = test system: Complete Freund's Adjuvant (CFA)-Induced Hyperalgesia; assay: Complete Freund's Adjuvant (CFA)-Induced Hyperalgesia, radiant heat; format: in vivo, Sprague-Dawley rats; details: rat CFA radiant heat model of inflammatory pain; FIG. 1
[3] = high-frequency stimulation (15th pulse), read-out: QPatch at High Frequency % Inhibition
[4] = low frequency, read-out: QPatch at Low Frequency % Inhibition
[5] = 1 μM, high-frequency stimulation (15th pulse), read-out: QPatch at High Frequency % Inhibition
[6] = low frequency, 1 μM, read-out: QPatch at Low Frequency % Inhibition

SMILES | inhibition at 0.33 µM ([1]; 0.33 μM) | IC50 [1] | inhibition at 0.1 µM (N-type calcium channel; [3]) | inhibition at 0.1 µM (N-type calcium channel; [4]) | inhibition at 1 µM (N-type calcium channel; [5]) | inhibition at 1 µM (N-type calcium channel; [6]) | further results
COc1ccccc1-n1nc2c(c1-c1ccc(Cl)cc1)CC1(C2)OCC(C)(C)CO1 [Compound 71, 3-(4-chlorophenyl)-2-(2-methoxyphenyl)-5′,5′-dimethyl-2,6-dihydro-4H-spiro[cyclopenta[c]pyrazole-5,2′-[1,3]dioxane]] | 89% | 13 nM | 37% | 21% |  |  | antihyperalgesic effect [2]: antihyperalgesic effect
CCOc1ccccc1-n1nc2c(c1-c1ccc(Cl)cc1)CC(N(C)S(=O)(=O)N(C)C)C2 (stereo not shown) [Compound 48, N-[3-(4-chlorophenyl)-2-(2-ethoxyphenyl)-2,4,5,6-tetrahydrocyclopenta[c]pyrazol-5-yl]-N,N′,N′-trimethylsulfamide] | 97% | 1.2 nM | 63% | 52% |  |  | 
COc1ccccc1-n1nc2c(c1-c1ccc(Cl)cc1)C[C@H](O[Si](C)(C)C)C2 [Compound 69, (5S)-3-(4-chlorophenyl)-2-(2-methoxyphenyl)-5-[(trimethylsilyl)oxy]-2,4,5,6-tetrahydrocyclopenta[c]pyrazole] | 93% | 9.6 nM | 26% | 15% |  |  | 
CCC(CC)C(=O)O[C@H]1Cc2nn(-c3ccccc3OC)c(-c3ccc(Cl)cc3)c2C1 [Compound 55, (5R)-3-(4-chlorophenyl)-2-(2-methoxyphenyl)-2,4,5,6-tetrahydrocyclopenta[c]pyrazol-5-yl 2-ethylbutanoate] | 95% | 11 nM | 29% | 12% | 79% | 57% | inhibition at 0.03 µM (N-type calcium channel; [3]): 19%; inhibition at 0.03 µM (N-type calcium channel; [4]): 15%
COc1ccccc1-n1nc2c(c1-c1ccc(Cl)cc1)CC(CNS(C)(=O)=O)C2 (stereo not shown) [Compound 8, N-{[3-(4-chlorophenyl)-2-(2-methoxyphenyl)-2,4,5,6-tetrahydrocyclopenta[c]pyrazol-5-yl]methyl}methanesulfonamide] | 96% | 55 nM |  |  | 57% | 62% | inhibition at 0.25 µM (N-type calcium channel; [3]): -12%; inhibition at 0.25 µM (N-type calcium channel; [4]): -9%
COc1ccccc1-n1nc2c(c1-c1ccc(C#N)cc1)C[C@H](n1cc(C3CCCC3)nn1)C2 [Compound 124, 4-[(5S)-5-(4-cyclopentyl-1H-1,2,3-triazol-1-yl)-2-(2-methoxyphenyl)-2,4,5,6-tetrahydrocyclopenta[c]pyrazol-3-yl]benzonitrile] | 88% | 43 nM |  |  | 73% | 68% | 
COc1ccccc1-n1nc2c(c1-c1ccc(Cl)cc1)CC(OC(=O)N(C)C)C2 (stereo not shown) [Compound 28, 3-(4-chlorophenyl)-2-(2-methoxyphenyl)-2,4,5,6-tetrahydrocyclopenta[c]pyrazol-5-yl dimethylcarbamate] |  | 15 nM | 45% | 25% |  |  | 
CCOc1ccccc1-n1nc2c(c1-c1ccc(Cl)cc1)C[C@@H](n1ccnc1)C2 [Compound 43, (5R)-3-(4-chlorophenyl)-2-(2-ethoxyphenyl)-5-(1H-imidazol-1-yl)-2,4,5,6-tetrahydrocyclopenta[c]pyrazole] | 87% | 42 nM | 5% | -22% |  |  | 
COc1ccccc1-n1nc2c(c1-c1ccc(Cl)cc1)CC(N1CCC(F)(F)C1)C2 (stereo not shown) [Compound 123, 3-(4-chlorophenyl)-5-(3,3-difluoropyrrolidin-1-yl)-2-(2-methoxyphenyl)-2,4,5,6-tetrahydrocyclopenta[c]pyrazole] | 91% | 19 nM | 26% | 2% |  |  | 
COc1ccccc1-n1nc2c(c1-c1ccc(Cl)cc1)CC1(C2)O[C@@H](C)[C@@H](C)O1 (stereo partly drawn) [Compound 103, (4′R,5′S)-3-(4-chlorophenyl)-2-(2-methoxyphenyl)-4′,5′-dimethyl-2,6-dihydro-4H-spiro[cyclopenta[c]pyrazole-5,2′-[1,3]dioxolane]] |  | 4.8 nM | 46% | 12% |  |  | % Inhibition (%) at 0.33 μM ([1]; 0.33 μM): 101%; QPatch at High Frequency % Inhibition (N-type calcium channel; 1 μM, high-frequency stimulation (15th pulse)): 69%; inhibition at 0.01 µM (N-type calcium channel; low frequency, 0.01 μM, read-out: QPatch at Low Frequency % Inhibition): -21%; QPatch at Low Frequency % Inhibition (N-type calcium channel; low frequency, 1 μM): 36%
COc1ccccc1-n1nc2c(c1-c1ccc(Cl)cc1)C[C@H](OC(=O)C1CCCC1)C2 [Compound 79, (5S)-3-(4-chlorophenyl)-2-(2-methoxyphenyl)-2,4,5,6-tetrahydrocyclopenta[c]pyrazol-5-yl cyclopentanecarboxylate] | 82% | 75 nM | 11% | -7% |  |  | 
CCC(CC)C(=O)O[C@@H]1Cc2nn(-c3ccccc3OC)c(-c3ccc(Cl)cc3)c2C1 [Compound 70, (5S)-3-(4-chlorophenyl)-2-(2-methoxyphenyl)-2,4,5,6-tetrahydrocyclopenta[c]pyrazol-5-yl 2-ethylbutanoate] | 96% | 15 nM | 19% |  |  |  | 
COc1ccccc1-n1nc2c(c1-c1ccc(N(C)C)nc1)CC1(C2)OC(C)(C)C(C)(C)O1 [Compound 110, 5-[2-(2-methoxyphenyl)-4′,4′,5′,5′-tetramethyl-2,6-dihydro-4H-spiro[cyclopenta[c]pyrazole-5,2′-[1,3]dioxolan]-3-yl]-N,N-dimethylpyridin-2-amine] | 90% | 2.8 nM | 1% | -9% |  |  | 
COc1ccccc1-n1nc2c(c1-c1ccc(C#N)cc1)C[C@H](n1cc(C(C)(C)C)nn1)C2 [Compound 130, 4-[(5S)-5-(4-tert-butyl-1H-1,2,3-triazol-1-yl)-2-(2-methoxyphenyl)-2,4,5,6-tetrahydrocyclopenta[c]pyrazol-3-yl]benzonitrile] | 92% | 50 nM |  |  | 57% | 39% | 
COc1ccccc1-n1nc2c(c1-c1ccc(OC(C)C)nc1)C[C@@H](N(C)S(=O)(=O)N(C)C)C2 [Compound 57, N-{(5R)-2-(2-Methoxyphenyl)-3-[6-(1-methylethoxy)pyridin-3-yl]-2,4,5,6-tetrahydrocyclopenta[c]pyrazol-5-yl}-N,N′,N′-trimethylsulfamide] | 99% | 18 nM |  |  | 83% | 75% | 
COc1ccccc1-n1nc2c(c1-c1ccc(C#N)cc1)CC(CC(C)C)C2 (stereo not shown) [Compound 105, 4-[2-(2-methoxyphenyl)-5-(2-methylpropyl)-2,4,5,6-tetrahydrocyclopenta[c]pyrazol-3-yl]benzonitrile] | 81% | 46 nM | 20% | -1% | 40% | 10% | 
CCOc1ccccc1-n1nc2c(c1-c1ccc(Cl)cc1)C[C@@H](NS(=O)(=O)C(C)C)C2 [Compound 44, N-[(5R)-3-(4-chlorophenyl)-2-(2-ethoxyphenyl)-2,4,5,6-tetrahydrocyclopenta[c]pyrazol-5-yl]propane-2-sulfonamide] | 89% | 32 nM | 48% | 42% |  |  | 
COc1ccccc1-n1nc2c(c1-c1ccc(Cl)cc1)C[C@H](OC1CCCCC1)C2 [Compound 88, (5S)-3-(4-chlorophenyl)-5-(cyclohexyloxy)-2-(2-methoxyphenyl)-2,4,5,6-tetrahydrocyclopenta[c]pyrazole] | 83% | 43 nM | 33% | 22% |  |  | 
